This passage reports IC50 results from patent US9963464B2, “Macrocyclic compounds” (Bayer Pharma Aktiengesellschaft, priority 2014, dated 2018).

The target in assay [1] is T1, CDK2/CycE (Homo sapiens, UniProt P24941).
T1 construct: GST; purchased ProQinase GmbH (Freiburg, Germany); host or cells: insect cells (Sf9)
Nature of the assay: CDK2/CycE kinase assay (TR-FRET, Method 2a). It is filed as biochemical. The note with it: 10 μM ATP. The text has this:
2a. CDK2/CycE Kinase Assay:
CDK2/CycE-inhibitory activity of compounds of the present invention was quantified employing the CDK2/CycE TR-FRET assay as described in the following paragraphs:
Recombinant fusion proteins of GST and human CDK2 and of GST and human CycE, expressed in insect cells (Sf9) and purified by Glutathion-Sepharose affinity chromatography, were purchased from ProQinase GmbH (Freiburg, Germany). As substrate for the kinase reaction biotinylated peptide biotin-Ttds-YISPLKSPYKISEG (C-terminus in amid form) was used which can be purchased e.g. from the company JERINI Peptide Technologies (Berlin, Germany).
For the assay 50 nl of a 100 fold concentrated solution of the test compound in DMSO was pipetted into a black low volume 384 well microtiter plate (Greiner Bio-One, Frickenhausen, Germany), 2 μl of a solution of CDK2/CycE in aqueous assay buffer [50 mM Tris/HCl pH 8.0, 10 mM MgCl2, 1.0 mM dithiothreitol, 0.1 mM sodium ortho-vanadate, 0.01% (v/v) Nonidet-P40 (Sigma)] were added and the mixture was incubated for 15 min at 22° C. to allow pre-binding of the test compounds to the enzyme before the start of the kinase reaction. […] The concentration of CDK2/CycE was adjusted depending of the activity of the enzyme lot and was chosen appropriate to have the assay in the linear range, typical concentrations were in the range of 130 ng/mL. The reaction was stopped by the addition of 5 μl of a solution of TR-FRET detection reagents (0.2 μM streptavidine-XL665 [Cisbio Bioassays, Codolet, France] and 1 nM anti-RB(pSer807/pSer811)-antibody from BD Pharmingen [#558389] and 1.2 nM LANCE EU-W1024 labeled anti-mouse IgG antibody [Perkin-Elmer, product no. AD0077]) in an aqueous EDTA-solution (100 mM EDTA, 0.2% (w/v) bovine serum albumin in 100 mM HEPES pH 7.5).
The resulting mixture was incubated 1 h at 22° C. to allow the formation of complex between the phosphorylated biotinylated peptide and the detection reagents. Subsequently the amount of phosphorylated substrate was evaluated by measurement of the resonance energy transfer from the Eu-chelate to the streptavidine-XL. Therefore, the fluorescence emissions at 620 nm and 665 nm after excitation at 350 nm was measured in a TR-FRET reader, e.g. a Rubystar (BMG Labtechnologies, Offenburg, Germany) or a Viewlux (Perkin-Elmer). The ratio of the emissions at 665 nm and at […] was taken as the measure for the amount of phosphorylated substrate. The data were normalised (enzyme reaction without inhibitor=0% inhibition, all other assay components but no enzyme=100% inhibition).

In assay [2] the test system is B16F10 cells. Nature of the assay: Proliferation assay B16F10. It is filed as cell-based, mouse. As to conditions: 4 days, crystal violet, read-out: Inhibition of B16F10 cell proliferation IC50. The method, then: Cultivated tumour cells (HeLa, human cervical tumour cells, ATCC CCL-2; NCI-H460, human non-small cell lung carcinoma cells, ATCC HTB-177; A2780, human ovarian carcinoma cells, ECACC #93112519; DU 145, hormone-independent human prostate carcinoma cells, ATCC HTB-81; HeLa-MaTu-ADR, multidrug-resistant human cervical carcinoma cells, EPO-GmbH Berlin; Caco-2, human colorectal carcinoma cells, ATCC HTB-37; B16F10, mouse melanoma cells, ATCC CRL-6475) were plated at a density of 5,000 cells/well (DU145, HeLa-MaTu-ADR), 3,000 cells/well (NCI-H460, HeLa), 2,500 cells/well (A2780), 1,500 cells/well (Caco-2), or 1,000 cells/well (B16F10) in a 96-well multititer plate in 200 μL of their respective growth medium supplemented 10% fetal calf serum. After 24 hours, the cells of one plate (zero-point plate) were stained with crystal violet (see below), while the medium of the other plates was replaced by fresh culture medium (200 μl), to which the test substances were added in various concentrations (0 μM, as well as in the range of 0.001-10 μM). The cells were incubated for 4 days in the presence of test substances. Cell proliferation was determined by staining the cells with crystal violet: the cells were fixed by adding 20 μl/measuring point of an 11% glutaric aldehyde solution for 15 minutes at room temperature. After three washing cycles of the fixed cells with water, the plates were dried at room temperature. The cells were stained by adding 100 μl/measuring point of a 0.1% crystal violet solution (pH 3.0). After three washing cycles of the stained cells with water, the plates were dried at room temperature. The dye was dissolved by adding 100 μl/measuring point of a 10% acetic acid solution. The extinction was determined by photometry at a wavelength of 595 nm. The change of cell number, in percent, was calculated by normalization of the measured values to the extinction values of the zero-point plate (=0%) and the extinction of the untreated (0 μm) cells (=100%). The IC50 values (inhibitory concentration at 50% of maximal effect) were determined by means of a 4 parameter fit. Non-adherent MOLM-13 human acute myeloid leukemia cells (DSMZ ACC 554) were seeded at a density of 5,000 cells/well in a 96-well multititer plate in 100 μL of growth medium supplemented 10% fetal calf serum. After 24 hours, cell viability of one plate (zero-point plate) was determined with the Cell Titre-Glo Luminescent Cell Viability Assay (Promega), while 50 μL of test compound containing medium was added to the wells of the other plates (final concentrations in the range of 0.001-1 μM and DMSO controls). Cell viability was assessed after 72-hour exposure with the Cell Titre-Glo Luminescent Cell Viability Assay (Promega). IC50 values (inhibitory concentration at 50% of maximal effect) were determined by means of a 4 parameter fit on measurement data which were normalized to vehicle (DMSO) treated cells (=100%) and measurement readings taken immediately before compound exposure (=0%).

SMILES strings stand for the structures. Read-outs that look alike come from different tables or passages of the source.

Consider `C[S+]([O-])Cc1cc2nc(c1)OCCOc1cc(F)ccc1-c1cc(ncc1F)N2` (racemic) [Example 10, (rac)-14,18-difluoro-7-[(methylsulfinyl)methyl]-2,3-dihydro-10H-9,5-(azeno)-11,15-(metheno)-1,4,10,12-benzodioxadiazacycloheptadecine], for which the IC50 in assay [1] was 415 nM; in assay [2] (Mus musculus, B16-F10, 96 h), 410 nM.
As to `CS(=N)(=O)Cc1cc2nc(c1)OCCOc1cc(F)ccc1-c1cc(ncc1F)N2` (racemic) [Example 11, (rac)-14,18-difluoro-7-[(S-methylsulfonimidoyl)methyl]-2,3-dihydro-10H-9,5-(azeno)-11,15-(metheno)-1,4,10,12-benzodioxadiazacycloheptadecine], the IC50 in assay [1] stood at 180 nM; in assay [2] (Mus musculus, B16-F10, 96 h), 200 nM.
As to `C[S+]([O-])Cc1cc2nc(c1)OCCCCOc1cc(F)ccc1-c1cc(ncc1F)N2` (racemic) [Example 13, (rac)-16,20-difluoro-9-[(methylsulfinyl)methyl]-2,3,4,5-tetrahydro-12H-11,7-(azeno)-13,17-(metheno)-1,6,12,14-benzodioxadiazacyclononadecine], the IC50 in assay [1] was found to be 16.7 nM; in assay [2] (Mus musculus, B16-F10, 96 h), 30 nM.
`CS(=N)(=O)Cc1cc2nc(c1)OCCCCOc1cc(F)ccc1-c1cc(ncc1F)N2` (racemic) [Example 14, (rac)-16,20-difluoro-9-[(S-methylsulfonimidoyl)methyl]-2,3,4,5-tetrahydro-12H-11,7-(azeno)-13,17-(metheno)-1,6,12,14-benzodioxadiazacyclononadecine]: the IC50 in assay [1] came out at 19.8 nM; in assay [2] (Mus musculus, B16-F10, 96 h), 22 nM.
On to `CS(=N)(=O)Cc1cc2cc(c1)OCCCOc1cc(F)ccc1-c1nc(ncc1F)N2` (racemic) [Example 15, (rac)-15,19-difluoro-8-[(S-methylsulfonimidoyl)methyl]-3,4-dihydro-2H,11H-12,16-(azeno)-10,6-(metheno)-1,5,11,13-benzodioxadiazacyclooctadecine], for which the IC50 was determined as 26 nM in assay [1] and 23 nM in assay [2] (Mus musculus, B16-F10, 96 h).
With `CS(=O)(Cc1cc2cc(c1)OCCCOc1cc(F)ccc1-c1nc(ncc1F)N2)=NC(=O)C(F)(F)F` (racemic) [Example 16, (rac)-N-[{[15,19-difluoro-3,4-dihydro-2H,11H-12,16-(azeno)-10,6-(metheno)-1,5,11,13-benzodioxadiazacyclooctadecin-8-yl]methyl}(methyl)oxido-λ^6-sulfanylidene]-2,2,2-trifluoroacetamide], the IC50 in assay [1] turned out to be 58.2 nM; in assay [2] (Mus musculus, B16-F10, 96 h), 18 nM.
On to `CS(=N)(=O)Cc1cc2nc(c1)OCCCOc1cc(F)ccc1-c1cc(ncc1F)N2` (single isomer, unassigned; enantiomer 1) [Example 6, 15,19-Difluoro-8-[(S-methylsulfonimidoyl)methyl]-3,4-dihydro-2H,11H-10,6-(azeno)-12,16-(metheno)-1,5,11,13-benzodioxadiazacyclooctadecine; Enantiomer 1], for which the IC50 in assay [1] came to 2.7 nM; in assay [2] (Mus musculus, B16-F10, 96 h), 7 nM.
As for `CS(=N)(=O)Cc1cc2nc(c1)OCCCOc1cc(F)ccc1-c1cc(ncc1F)N2` (single isomer, unassigned; enantiomer 2) [Example 7, 15,19-Difluoro-8-[(S-methylsulfonimidoyl)methyl]-3,4-dihydro-2H,11H-10,6-(azeno)-12,16-(metheno)-1,5,11,13-benzodioxadiazacyclooctadecine; Enantiomer 2], the IC50 in assay [1] turned out to be 2.4 nM; in assay [2], 7 nM.
As for `CSCc1cc2cc(c1)OCCCOc1cc(F)ccc1-c1nc(ncc1F)N2` [Example 2, 15,19-Difluoro-8-[(methylsulfanyl)methyl]-3,4-dihydro-2H,11H-12,16-(azeno)-10,6-(metheno)-1,5,11,13-benzodioxadiazacyclooctadecine], the IC50 in assay [1] stood at 97.8 nM; in assay [2] (Mus musculus, B16-F10, 96 h) it was 167 nM.
Take `CSCc1cc2nc(c1)OCCCOc1cc(F)ccc1-c1cc(ncc1F)N2` [Example 3, 15,19-Difluoro-8-[(methylsulfanyl)methyl]-3,4-dihydro-2H,11H-10,6-(azeno)-12,16-(metheno)-1,5,11,13-benzodioxadiazacyclooctadecine]: the IC50 in assay [1] was found to be 41 nM; in assay [2] (Mus musculus, B16-F10, 96 h) it was 81 nM.
Take `CS(=O)(=O)Cc1cc2nc(c1)OCCCOc1cc(F)ccc1-c1cc(ncc1F)N2` [Example 8, 15,19-difluoro-8-[(methylsulfonyl)methyl]-3,4-dihydro-2H,11H-10,6-(azeno)-12,16-(metheno)-1,5,11,13-benzodioxadiazacyclooctadecine]: the IC50 amounted to 5 nM in assay [1] and 9 nM in assay [2] (Mus musculus, B16-F10, 96 h).
On the same counts, the results for `CSCc1cc2nc(c1)OCCCCOc1cc(F)ccc1-c1cc(ncc1F)N2` [Example 12, 16,20-Difluoro-9-[(methylsulfanyl)methyl]-2,3,4,5-tetrahydro-12H-11,7-(azeno)-13,17-(metheno)-1,6,12,14-benzodioxadiazacyclononadecine] are 114 nM and 343 nM.
